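Protocol summary: plate cells (96-well), add compound at 5 concentrations, incubate 48 h, interpolate endpoints linearly. At the TGI there is no net growth.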
Tests used:
Experiment in all cases: NCI anticancer screen, dose series, 48 h
A549 NSCLC = system: A549 NSCLC
MOLT-4 leukemia = system: MOLT-4 leukemia
HOP-62 NSCLC = system: HOP-62 NSCLC
M14 melanoma = system: M14 melanoma
MDA-MB-231 breast = system: MDA-MB-231 breast
MALME-3M melanoma = system: MALME-3M melanoma
OVCAR-4 ovarian = system: OVCAR-4 ovarian
HT29 colon = system: HT29 colon
EKVX NSCLC = system: EKVX NSCLC
LOX IMVI melanoma = system: LOX IMVI melanoma
SR leukemia = system: SR leukemia
ACHN renal = system: ACHN renal
COLO 205 colon = system: COLO 205 colon
HOP-92 NSCLC = system: HOP-92 NSCLC
TK-10 renal = system: TK-10 renal
HS 578T breast = system: HS 578T breast
HCT-116 colon = system: HCT-116 colon
DU-145 prostate = system: DU-145 prostate
MDA-N = system: MDA-N
IGROV1 ovarian = system: IGROV1 ovarian
U251 CNS = system: U251 CNS
UACC-257 melanoma = system: UACC-257 melanoma
CCRF-CEM leukemia = system: CCRF-CEM leukemia
KM12 colon = system: KM12 colon
HCT-15 colon = system: HCT-15 colon
RPMI-8226 leukemia = system: RPMI-8226 leukemia
OVCAR-5 ovarian = system: OVCAR-5 ovarian
A498 renal = system: A498 renal
T-47D breast = system: T-47D breast
OVCAR-3 ovarian = system: OVCAR-3 ovarian
BT-549 breast = system: BT-549 breast
CAKI-1 renal = system: CAKI-1 renal
SK-MEL-28 melanoma = system: SK-MEL-28 melanoma
UACC-62 melanoma = system: UACC-62 melanoma
SK-OV-3 ovarian = system: SK-OV-3 ovarian
UO-31 renal = system: UO-31 renal
NCI-H226 lung = system: NCI-H226 lung
MCF7 breast = system: MCF7 breast
NCI/ADR-RES ovarian = system: NCI/ADR-RES ovarian
NCI-H460 lung = system: NCI-H460 lung
SN12C renal = system: SN12C renal
SF-268 CNS = system: SF-268 CNS
SK-MEL-5 melanoma = system: SK-MEL-5 melanoma
SNB-19 CNS = system: SNB-19 CNS
NCI-H522 lung = system: NCI-H522 lung
SW-620 colon = system: SW-620 colon
786-0 renal = system: 786-0 renal
SF-539 CNS = system: SF-539 CNS
MDA-MB-435 = system: MDA-MB-435
PC-3 prostate = system: PC-3 prostate
OVCAR-8 ovarian = system: OVCAR-8 ovarian
SF-295 CNS = system: SF-295 CNS
NCI-H23 lung = system: NCI-H23 lung
K-562 leukemia = system: K-562 leukemia
HCC-2998 colon = system: HCC-2998 colon
RXF 393 renal = system: RXF 393 renal
SK-MEL-2 melanoma = system: SK-MEL-2 melanoma
HL-60(TB) leukemia = system: HL-60(TB) leukemia
SNB-75 CNS = system: SNB-75 CNS

CC1(O)CC(C(F)(F)F)(C(F)(F)F)OC1=O (stereo not drawn)
TGI (A549 NSCLC): > 10 µM
TGI (MOLT-4 leukemia): > 10 µM
TGI (HOP-62 NSCLC): > 10 µM
TGI (M14 melanoma): > 10 µM
TGI (MDA-MB-231 breast): > 10 µM
TGI (MALME-3M melanoma): > 10 µM
TGI (OVCAR-4 ovarian): > 10 µM
TGI (HT29 colon): > 10 µM
TGI (EKVX NSCLC): > 10 µM
TGI (LOX IMVI melanoma): > 10 µM
TGI (SR leukemia): > 10 µM
TGI (ACHN renal): > 10 µM
TGI (COLO 205 colon): > 10 µM
TGI (HOP-92 NSCLC): > 10 µM
TGI (TK-10 renal): > 10 µM
TGI (HS 578T breast): > 10 µM
TGI (HCT-116 colon): > 10 µM
TGI (DU-145 prostate): > 10 µM
TGI (MDA-N): > 10 µM
TGI (IGROV1 ovarian): > 10 µM
TGI (U251 CNS): > 10 µM
TGI (UACC-257 melanoma): > 10 µM
TGI (CCRF-CEM leukemia): > 10 µM
TGI (KM12 colon): > 10 µM
TGI (HCT-15 colon): > 10 µM
TGI (RPMI-8226 leukemia): > 10 µM
TGI (OVCAR-5 ovarian): > 10 µM
TGI (A498 renal): > 10 µM
TGI (T-47D breast): > 10 µM
TGI (OVCAR-3 ovarian): > 10 µM
TGI (BT-549 breast): > 10 µM
TGI (CAKI-1 renal): > 10 µM
TGI (SK-MEL-28 melanoma): > 10 µM
TGI (UACC-62 melanoma): > 10 µM
TGI (SK-OV-3 ovarian): > 10 µM
TGI (UO-31 renal): > 10 µM
TGI (NCI-H226 lung): > 10 µM
TGI (MCF7 breast): > 10 µM
TGI (NCI/ADR-RES ovarian): > 10 µM
TGI (NCI-H460 lung): > 10 µM
TGI (SN12C renal): > 10 µM
TGI (SF-268 CNS): > 10 µM
TGI (SK-MEL-5 melanoma): > 10 µM
TGI (SNB-19 CNS): > 10 µM
TGI (NCI-H522 lung): > 10 µM
TGI (SW-620 colon): > 10 µM
TGI (786-0 renal): > 10 µM
TGI (SF-539 CNS): > 10 µM
TGI (MDA-MB-435): > 10 µM
TGI (PC-3 prostate): > 10 µM
TGI (OVCAR-8 ovarian): > 10 µM
TGI (SF-295 CNS): > 10 µM
TGI (NCI-H23 lung): > 10 µM
TGI (K-562 leukemia): > 10 µM
TGI (HCC-2998 colon): > 10 µM

CCN(CC)CCc1c2c(nc3ccccc13)C(=O)c1cccnc1C2=O
TGI (A549 NSCLC): 8.65 µM
TGI (HOP-62 NSCLC): 11.8 µM
TGI (M14 melanoma): 1.73 µM
TGI (MDA-MB-231 breast): 6.72 µM
TGI (MALME-3M melanoma): 4.49 µM
TGI (OVCAR-4 ovarian): 3.69 µM
TGI (HT29 colon): 11.1 µM
TGI (EKVX NSCLC): 13.7 µM
TGI (LOX IMVI melanoma): 2.31 µM
TGI (SR leukemia): 0.993 µM
TGI (COLO 205 colon): 3.07 µM
TGI (HOP-92 NSCLC): 40.1 µM
TGI (TK-10 renal): 12.6 µM
TGI (HS 578T breast): > 100 µM
TGI (HCT-116 colon): 3.53 µM
TGI (DU-145 prostate): 1.84 µM
TGI (MDA-N): 4.54 µM
TGI (IGROV1 ovarian): 5.53 µM
TGI (U251 CNS): 20 µM
TGI (UACC-257 melanoma): 2.91 µM
TGI (CCRF-CEM leukemia): 5.72 µM
TGI (KM12 colon): 6.57 µM
TGI (HCT-15 colon): 1.29 µM
TGI (RPMI-8226 leukemia): 6.43 µM
TGI (OVCAR-5 ovarian): 25.4 µM
TGI (A498 renal): 5.29 µM
TGI (RXF 393 renal): 7 µM
TGI (T-47D breast): 5.31 µM
TGI (OVCAR-3 ovarian): 5.8 µM
TGI (BT-549 breast): 7.56 µM
TGI (CAKI-1 renal): 4.9 µM
TGI (SK-MEL-28 melanoma): 7.27 µM
TGI (UACC-62 melanoma): 2.97 µM
TGI (SK-MEL-2 melanoma): 10.4 µM
TGI (SK-OV-3 ovarian): 4.22 µM
TGI (NCI-H226 lung): 18.2 µM
TGI (MCF7 breast): 1.51 µM
TGI (NCI/ADR-RES ovarian): > 100 µM
TGI (SN12C renal): 5.92 µM
TGI (SF-268 CNS): > 100 µM
TGI (SK-MEL-5 melanoma): 1.34 µM
TGI (NCI-H522 lung): 6.46 µM
TGI (SW-620 colon): 12.7 µM
TGI (786-0 renal): 9.56 µM
TGI (HL-60(TB) leukemia): 1.41 µM
TGI (MDA-MB-435): 4.99 µM
TGI (PC-3 prostate): 18.6 µM
TGI (OVCAR-8 ovarian): > 100 µM
TGI (SF-295 CNS): 5.41 µM
TGI (NCI-H23 lung): 8.53 µM
TGI (K-562 leukemia): 4.23 µM
TGI (SNB-75 CNS): 16.7 µM
TGI (HCC-2998 colon): 7.55 µM
